Values joined by “and” are separate entries in the source; they are usually repeats but may differ in a detail not shown here. Equal entries are not always repeated.
What was measured:
Type in all cases: cell-based, mouse
[1] = system: α7 integrin (LacZ reporter in α7βgal+/− myoblasts); experiment: Myoblast α7+/LacZ integrin FDG assay (Burkin assay in myoblasts, 96-well); details: α7+/LacZ myoblasts, 96-well
[2] = system: α7 integrin (LacZ reporter in α7+/LacZ myotubes); experiment: Myotube α7 integrin FDG assay (Burkin assay in myotubes, 96-well); details: myotubes
[3] = system: β-galactosidase in CMV-LacZ C2C12 myoblasts; experiment: CMV-LacZ secondary screen in C2C12 myoblasts (β-Gal stabilizing assay); details: CMV-LacZ C2C12 myoblasts
How it was run: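 β-gal stabilization was measured in C2C12 myoblasts or myotubes stably transfected with a CMV-driven LacZ construct, using the FDG β-gal assay. Compounds were tested in dose-response at 0.5, 1, 5, 10, 20 and 40 μM, with two replicates per point.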

[4] = system: β-galactosidase in CMV-LacZ C2C12 myotubes; experiment: CMV-LacZ secondary screen in C2C12 myotubes (β-Gal stabilizing assay); details: C2C12 CMV-LacZ myotubes, fold relative to DMSO
How it was run: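 Stable CMV-LacZ C2C12 clone; six-point curve 0.5–40 μM; duplicates.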

Row | Structure (SMILES) | Burkin Assay in Myoblasts, signal relative to DMSO ([1]; 0.5 uM) | Burkin Assay in Myoblasts, signal relative to DMSO ([1]; 1 uM) | Burkin Assay in Myoblasts, signal relative to DMSO ([1]; 5 uM) | Burkin Assay in Myoblasts, signal relative to DMSO ([1]; 10 uM) | Burkin Assay in Myoblasts, signal relative to DMSO ([1]; 20 uM) | Burkin Assay in Myoblasts, signal relative to DMSO ([1]; 40 uM) | Burkin Assay in Myotubes, α7 integrin LacZ reporter signal relative to DMSO ([2]; 0.5 uM) | Burkin Assay in Myotubes, α7 integrin LacZ reporter signal relative to DMSO ([2]; 1 uM) | Burkin Assay in Myotubes, α7 integrin LacZ reporter signal relative to DMSO ([2]; 5 uM) | Burkin Assay in Myotubes, α7 integrin LacZ reporter signal relative to DMSO ([2]; 10 uM) | Burkin Assay in Myotubes, α7 integrin LacZ reporter signal relative to DMSO ([2]; 20 uM) | Burkin Assay in Myotubes, α7 integrin LacZ reporter signal relative to DMSO ([2]; 40 uM) | CMV-LACZ in Myoblasts (β-galactosidase activity relative to DMSO) ([3]; 0.5 uM) | CMV-LACZ in Myoblasts (β-galactosidase activity relative to DMSO) ([3]; 1 uM) | CMV-LACZ in Myoblasts (β-galactosidase activity relative to DMSO) ([3]; 5 uM) | CMV-LACZ in Myoblasts (β-galactosidase activity relative to DMSO) ([3]; 10 uM) | CMV-LACZ in Myoblasts (β-galactosidase activity relative to DMSO) ([3]; 20 uM) | CMV-LACZ in Myoblasts (β-galactosidase activity relative to DMSO) ([3]; 40 uM) | CMV-LACZ in Myotubes, signal relative to DMSO ([4]; 0.5 uM) | CMV-LACZ in Myotubes, signal relative to DMSO ([4]; 1 uM) | other results
1 | COc1cc(C=O)ccc1OCC(=O)Nc1ccc2c(c1)OCO2 [MLS001123876-01] | 1.041 | 0.8264 | 1.44 | 1.095 | 0.9339 | 0.8844 | 0.866 | 0.8193 | 1.1689 | 1.232 | 0.7114 | 1.003 | 0.8260 | 1.0263 | 0.9251 | 0.9871 | 0.9618 | 0.7333 | 0.8962 | 1.4943 | CMV-LACZ in Myotubes, signal relative to DMSO ([4]; 5 uM): 0.9002; CMV-LACZ in Myotubes, signal relative to DMSO ([4]; 10 uM): 0.9279; CMV-LACZ in Myotubes, signal relative to DMSO ([4]; 20 uM): 0.9880; CMV-LACZ in Myotubes, signal relative to DMSO ([4]; 40 uM): 1.0300
2 | COc1ccc(N2CCN(C(=O)c3cc(C)on3)CC2)cc1 [MLS001124046-01] | – | – | – | – | – | – | – | – | – | – | – | – | 0.8409 | 1.2650 | 0.9307 | 0.8501 | 0.9881 | 1.0807 | – | – | fold induction at 0.5 µM ([1]; Mus musculus, Myoblast, 48 h, 0.5 uM, read-out: Burkin Assay in Myoblasts, signal relative to DMSO): 1.06; fold induction at 1 µM ([1]; Mus musculus, Myoblast, 48 h, 1 uM, read-out: Burkin Assay in Myoblasts, signal relative to DMSO): 1.16; fold induction at 5 µM ([1]; Mus musculus, Myoblast, 48 h, 5 uM, read-out: Burkin Assay in Myoblasts, signal relative to DMSO): 1.08; fold induction at 10 µM ([1]; Mus musculus, Myoblast, 48 h, 10 uM, read-out: Burkin Assay in Myoblasts, signal relative to DMSO): 1.01; fold induction at 20 µM ([1]; Mus musculus, Myoblast, 48 h, 20 uM, read-out: Burkin Assay in Myoblasts, signal relative to DMSO): 1.1; fold induction at 40 µM ([1]; Mus musculus, Myoblast, 48 h, 40 uM, read-out: Burkin Assay in Myoblasts, signal relative to DMSO): 1.07; fold induction at 0.5 µM ([2]; Mus musculus, Myotube, 0.5 uM, read-out: Burkin Assay in Myotubes, α7 integrin LacZ reporter signal relative to DMSO): 1.15; fold induction at 1 µM ([2]; Mus musculus, Myotube, 1 uM, read-out: Burkin Assay in Myotubes, α7 integrin LacZ reporter signal relative to DMSO): 1.1; fold induction at 5 µM ([2]; Mus musculus, Myotube, 5 uM, read-out: Burkin Assay in Myotubes, α7 integrin LacZ reporter signal relative to DMSO): 1.42; fold induction at 10 µM ([2]; Mus musculus, Myotube, 10 uM, read-out: Burkin Assay in Myotubes, α7 integrin LacZ reporter signal relative to DMSO): 1.02; fold induction at 20 µM ([2]; Mus musculus, Myotube, 20 uM, read-out: Burkin Assay in Myotubes, α7 integrin LacZ reporter signal relative to DMSO): 0.893; fold induction at 40 µM ([2]; Mus musculus, Myotube, 40 uM, read-out: Burkin Assay in Myotubes, α7 integrin LacZ reporter signal relative to DMSO): 0.92; fold induction at 0.5 µM ([4]; Mus musculus, C2C12, read-out: CMV-LACZ in Myotubes, signal relative to DMSO, 0.5 uM): 1.02; fold induction at 1 µM ([4]; Mus musculus, C2C12, read-out: CMV-LACZ in Myotubes, signal relative to DMSO, 1 uM): 1.02; fold induction at 5 µM ([4]; Mus musculus, C2C12, read-out: CMV-LACZ in Myotubes, signal relative to DMSO, 5 uM): 0.84; fold induction at 10 µM ([4]; Mus musculus, C2C12, read-out: CMV-LACZ in Myotubes, signal relative to DMSO, 10 uM): 1.02; fold induction at 20 µM ([4]; Mus musculus, C2C12, read-out: CMV-LACZ in Myotubes, signal relative to DMSO, 20 uM): 1.09; fold induction at 40 µM ([4]; Mus musculus, C2C12, read-out: CMV-LACZ in Myotubes, signal relative to DMSO, 40 uM): 0.981
3 | CC1(C)Cc2c(cnn2-c2cccc(F)c2)C(NC(=O)CCc2cnccn2)C1 (stereo not drawn) [MLS001125260-01] | 1.21 and 1.071 | 1.11 and 1.021 | 0.9838 and 0.9248 | 0.9616 and 0.8893 | 1.024 and 0.8738 | 0.9057 and 0.8426 | 1.285 and 1.002 | 1.208 and 0.8663 | 0.9677 and 1.022 | 1.091 and 0.9402 | 0.7634 and 0.9057 | 0.7451 and 0.9086 | 1.1581 | 1.0584 | 1.0114 | 0.9131 | 1.0563 | 1.2270 | 1.0074 | 1.0993 | CMV-LACZ in Myotubes, signal relative to DMSO ([4]; 5 uM): 0.9614 and 0.9645; CMV-LACZ in Myotubes, signal relative to DMSO ([4]; 10 uM): 1.0994 and 1.065; CMV-LACZ in Myotubes, signal relative to DMSO ([4]; 20 uM): 1.0000 and 1.0765; CMV-LACZ in Myotubes, signal relative to DMSO ([4]; 40 uM): 0.9212 and 1.175
4 | CC(C)c1ccc(OC(=O)c2cccc(S(=O)(=O)N3CCN(C)CC3)c2)cc1 [MLS001130011-01] | 0.9715 | 0.8947 | 1.374 | 0.9762 | 1.037 | 0.9155 | 0.9553 | 0.9952 | 0.8834 | 1.0699 | 0.7883 | 0.7512 | 1.1702 | 0.7695 | 1.0011 | 1.1138 | 0.7837 | 0.8311 | 0.9358 | 1.0211 | CMV-LACZ in Myotubes, signal relative to DMSO ([4]; 5 uM): 0.9057; CMV-LACZ in Myotubes, signal relative to DMSO ([4]; 10 uM): 0.8998; CMV-LACZ in Myotubes, signal relative to DMSO ([4]; 20 uM): 0.8367; CMV-LACZ in Myotubes, signal relative to DMSO ([4]; 40 uM): 1.0156
5 | Cn1ccc(C(=O)Nc2cccnc2Cl)n1 [MLS001147478-01] | 1.142 | 1.091 | 1.0569 | 1.192 | 0.9651 | 0.8215 | 1.076 | 0.9677 | 0.9933 | 1.041 | 0.8876 | 0.8744 | 1.0721 | 0.8808 | 1.2105 | 1.2999 | 1.0513 | 0.8747 | 1.3536 | 1.3827 | CMV-LACZ in Myotubes, signal relative to DMSO ([4]; 5 uM): 0.8937; CMV-LACZ in Myotubes, signal relative to DMSO ([4]; 10 uM): 1.2959; CMV-LACZ in Myotubes, signal relative to DMSO ([4]; 20 uM): 1.0810; CMV-LACZ in Myotubes, signal relative to DMSO ([4]; 40 uM): 0.9510

Reference: patent publication US9980943B2, “Methods of treating muscular dystrophy” (BOARD OF REGENTS OF THE NEVADA SYSTEM OF HIGHER EDUCATION, …, priority 2013, dated 2018)
